From ChEMBL document CHEMBL5096200, “A short survey of dengue protease inhibitor development in the past 6 years (2015-2020) with an emphasis on similarities between DENV and SARS-CoV-2 proteases” (Bioorg Med Chem, 2021)
pEC50, pIC50, pKi: −log10 of the molar value. Counter-ions that a name gives are not always drawn. Positions of bridges follow the written chain, without caps; N, C: chain ends. Non-standard residues stand in square brackets, D forms with d. Residues, ends and D or L forms follow the SMILES beside them. NBnAla = C[C@H](NCc1ccccc1)C(=O)O

Legend:
[1] = target: T1, Genome polyprotein (dengue virus type 2, UniProt P29990); experiment: Inhibition of DENV2 NS2B-NS3 protease
[2] = target: T1, Genome polyprotein; experiment: Binding affinity to DENV2 NS2B/NS3 protease assessed as inhibition constant
[3] = tested on: dengue virus type 2; experiment: Antiviral activity against Dengue virus 2 infected in african green monkey Vero cells assessed as reduction in viral titer; format: functional, organism-based
[4] = Binding affinity to wildtype DENV3 protease assessed as inhibition constant using [Ac-[D-EDANS]KRRSWP[K-DABCYL]-AMIDE] as substrate by FRET-based enzymatic assay; design: species or system dengue virus type 3
[5] = target: T1, Genome polyprotein; experiment: Inhibition of DENV2 NS2B-NS3 protease using Boc-Gly-Arg-Arg-7-amino-4-methylcoumarin as substrate incubated for 10 mins by fluorometric assay

T1 sequence (P29990 1346-1475 limits assumed): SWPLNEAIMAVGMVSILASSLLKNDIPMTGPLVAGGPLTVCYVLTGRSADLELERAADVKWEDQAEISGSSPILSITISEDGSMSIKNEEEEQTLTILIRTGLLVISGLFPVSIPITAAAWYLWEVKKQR
T1 sequence (P29990 1476-2093 limits assumed): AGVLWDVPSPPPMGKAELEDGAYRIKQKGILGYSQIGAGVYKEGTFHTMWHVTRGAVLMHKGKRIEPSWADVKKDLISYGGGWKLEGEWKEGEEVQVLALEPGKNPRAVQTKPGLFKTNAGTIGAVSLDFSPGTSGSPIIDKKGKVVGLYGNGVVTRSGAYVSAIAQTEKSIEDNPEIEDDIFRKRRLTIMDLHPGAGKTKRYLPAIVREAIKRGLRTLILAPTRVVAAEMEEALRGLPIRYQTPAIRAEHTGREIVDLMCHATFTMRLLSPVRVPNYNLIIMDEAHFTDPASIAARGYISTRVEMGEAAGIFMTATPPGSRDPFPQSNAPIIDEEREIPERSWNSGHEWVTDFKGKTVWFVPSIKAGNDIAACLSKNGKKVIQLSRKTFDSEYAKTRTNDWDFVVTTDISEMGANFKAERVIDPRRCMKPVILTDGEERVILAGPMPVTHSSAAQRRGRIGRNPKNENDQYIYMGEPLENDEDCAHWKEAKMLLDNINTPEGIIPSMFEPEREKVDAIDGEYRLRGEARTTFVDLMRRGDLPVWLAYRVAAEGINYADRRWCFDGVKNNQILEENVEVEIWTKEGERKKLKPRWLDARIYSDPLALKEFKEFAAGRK

Compound: CCN1/C(=C/C=C/c2oc3ccc4ccccc4c3[n+]2CC)Oc2ccc3ccccc3c21
- pIC50 [1]: 4.57

Compound: N=C(N)Nc1ccc(OC(=O)c2ccc(NC(=N)N)cc2)cc1
- pKi [2]: 5.70
- pKi [1]: 5.70

Compound: N=C(N)N/N=C/c1ccc(/C=N/NC(=N)N)cc1
- pKi [2]: 4.36
- pKi [1]: 4.36

Compound: O=C(O)c1cc2sc(NC(=O)c3ccccc3Sc3ccc(C(F)(F)F)cc3)nc2cc1O
- pEC50 [3]: 6.05

Compound: CC[C@H](C)[C@@H]1NC(=O)[C@H](CCCNC(=N)N)NC(=O)[C@H](C(C)C)NC(=O)[C@H](CCCNC(=N)N)NC(=O)[C@@H](NC(=O)[C@@H]2CCCN2)CSSC[C@@H](C(=O)N[C@H](C)C(=O)O)NC(=O)CNC(=O)CNC(=O)[C@H](CC(=O)O)NC1=O
- pKi [4]: 4.45

Compound: O=C(Nc1nc2ccc([N+](=O)[O-])cc2s1)c1ccccc1Sc1ccc(C(F)(F)F)cc1
- pEC50 [3]: 7.00
- pIC50 [5]: 4.66

Compound: CC[C@H](C)[C@@H]1NC(=O)[C@H](CCCNC(=N)N)NC(=O)[C@H](C)NC(=O)[C@H](CCCNC(=N)N)NC(=O)[C@@H](NC(=O)[C@@H]2CCCN2)CSSC[C@@H](C(=O)N[C@H](C)C(=O)O)NC(=O)CNC(=O)CNC(=O)[C@H](CC(=O)O)NC1=O
- pKi [4]: 4.16

Compound: COc1cc2nc(NC(=O)c3ccccc3Sc3ccc(C(F)(F)F)cc3)sc2cc1OC
- pEC50 [3]: 5.60

Compound: CC[C@H](C)[C@@H]1NC(=O)[C@H](CCCNC(=N)N)NC(=O)[C@H](C(C)C)NC(=O)[C@H](CCCNC(=N)N)NC(=O)[C@@H](NC(=O)[C@@H]2CCCN2)CSSC[C@@H](C(=O)N[C@H](C)C(=O)O)NC(=O)CNC(=O)CNC(=O)[C@H](Cc2ccc(O)cc2)NC1=O
- pKi [4]: 4.59

Compound: O=C(Nc1nc2ccc([N+](=O)[O-])cc2s1)c1ccccc1Sc1ccc([N+](=O)[O-])cc1
- pIC50 [5]: 4.47

Compound: CC[C@H](C)[C@@H]1NC(=O)[C@H](Cc2c[nH]c3ccccc23)NC(=O)[C@H](C)NC(=O)[C@H](CCCNC(=N)N)NC(=O)[C@@H](NC(=O)[C@@H]2CCCN2)CSSC[C@@H](C(=O)N[C@H](C)C(=O)O)NC(=O)CNC(=O)CNC(=O)[C@H](Cc2ccc(O)cc2)NC1=O
- pKi [4]: 3.84

Compound: O=C(Nc1nc2ccc([N+](=O)[O-])cc2s1)c1cccc(Sc2ccc([N+](=O)[O-])cc2)c1
- pEC50 [3]: 6.52
- pIC50 [5]: 4.59

Compound: O=[N+]([O-])c1ccc(N=Nc2ccc(O)c3ccccc23)c([N+](=O)[O-])c1
- pKi [2]: 4.82
- pKi [1]: 4.82

Compound: CC[C@H](C)[C@@H]1NC(=O)[C@H](Cc2c[nH]c3ccccc23)NC(=O)[C@H](C)NC(=O)[C@H](CCCNC(=N)N)NC(=O)[C@@H](NC(=O)[C@@H]2CCCN2)CSSC[C@@H](C(=O)N[C@H](CCCNC(=N)N)C(=O)O)NC(=O)CNC(=O)CNC(=O)[C@H](Cc2ccc(O)cc2)NC1=O
- pKi [4]: 4.71

Compound: CC[C@H](C)[C@@H]1NC(=O)[C@H](CCCNC(=N)N)NC(=O)[C@H](C)NC(=O)[C@H](CCCNC(=N)N)NC(=O)[C@@H](NC(=O)c2ccccc2)CSSC[C@@H](C(=O)N[C@H](C)C(=O)O)NC(=O)CNC(=O)CNC(=O)[C@H](Cc2ccc(O)cc2)NC1=O
- pKi [4]: 4.48

Compound: N=C(N)NCCC[C@@H]1NC(=O)[C@H](CCCCN)NC(=O)CNC(=O)[C@@H](N)CSSC[C@@H](C(=O)O)NC(=O)[C@H](CO)NC(=O)[C@H](CCCCN)NC1=O (H-CGKRKSC-OH; disulfide 1-7)
- pKi [2]: 5.85
- pKi [1]: 5.85

Compound: CC[C@H](C)[C@@H]1NC(=O)[C@H](CCCNC(=N)N)NC(=O)[C@H](C)NC(=O)[C@H](CCCNC(=N)N)NC(=O)[C@@H](N)CSSC[C@@H](C(=O)N[C@@H](C)C(=O)O)NC(=O)CNC(=O)CNC(=O)[C@H](Cc2ccc(O)cc2)NC(=O)CNC1=O (H-CRARIGYGGCA-OH; disulfide 1-10)
- pKi [4]: 3.84

Compound: CC[C@H](C)[C@@H]1NC(=O)[C@H](CCCNC(=N)N)NC(=O)[C@H](C)NC(=O)[C@H](CCCCN)NC(=O)[C@@H](NC(=O)[C@@H]2CCCN2)CSSC[C@@H](C(=O)N[C@@H](C)C(=O)O)NC(=O)CNC(=O)CNC(=O)[C@H](Cc2ccc(O)cc2)NC(=O)CNC1=O (H-PCKARIGYGGCA-OH; disulfide 2-11)
- pKi [4]: 3.42

Compound: CC[C@H](C)[C@@H]1NC(=O)[C@H](CCCNC(=N)N)NC(=O)[C@H](C)NC(=O)[C@H](CCCCN)NC(=O)[C@@H](NC(=O)[C@@H]2CCCN2)CSSC[C@@H](C(=O)N[C@@H](C)C(=O)O)NC(=O)CNC(=O)CNC(=O)[C@H](Cc2ccc(O)cc2)NC(=O)CNC(=O)CNC(=O)[C@H]([C@@H](C)CC)NC1=O (H-PCKARIIGGYGGCA-OH; disulfide 2-13)
- pKi [4]: 3.17

Compound: CC[C@H](C)[C@@H]1NC(=O)[C@H](CCCNC(=N)N)NC(=O)[C@H](C)NC(=O)[C@H](CCCCN)NC(=O)[C@@H](NC(=O)[C@@H]2CCCN2)CSSC[C@@H](C(=O)N[C@@H](CCCNC(=N)N)C(=O)O)NC(=O)CNC(=O)CNC(=O)[C@H](Cc2ccc(O)cc2)NC(=O)CNC(=O)CNC(=O)[C@H]([C@@H](C)CC)NC1=O (H-PCKARIIGGYGGCR-OH; disulfide 2-13)
- pKi [4]: 3.63

Compound: CC[C@H](C)[C@@H]1NC(=O)[C@H](CCCNC(=N)N)NC(=O)[C@H](C)NC(=O)[C@H](CCCCN)NC(=O)[C@@H](NC(=O)[C@@H]2CCCN2)CSSC[C@@H](C(=O)N[C@@H](C)C(=O)O)NC(=O)CNC(=O)CNC(=O)[C@H](Cc2ccc(O)cc2)NC1=O (H-PCKARIYGGCA-OH; disulfide 2-10)
- pKi [4]: 4.84

Compound: CC[C@H](C)[C@@H]1NC(=O)[C@H](CCCNC(=N)N)NC(=O)[C@H](C)NC(=O)[C@H](CCCNC(=N)N)NC(=O)[C@@H](NC(=O)[C@@H]2CCCN2)CSSC[C@@H](C(=O)N[C@@H](C)C(=O)O)NC(=O)CNC1=O (H-PCRARIGCA-OH; disulfide 2-8)
- pKi [4]: 3.99

Compound: CC[C@H](C)[C@@H]1NC(=O)[C@H](CCCNC(=N)N)NC(=O)[C@H](C)NC(=O)[C@H](CCCNC(=N)N)NC(=O)[C@@H](NC(=O)[C@@H]2CCCN2)CSSC[C@@H](C(=O)N[C@@H](C)C(=O)O)NC(=O)CNC(=O)CNC1=O (H-PCRARIGGCA-OH; disulfide 2-9)
- pKi [4]: 3.11

Compound: CC[C@H](C)[C@@H]1NC(=O)[C@H](CCCNC(=N)N)NC(=O)[C@H](C)NC(=O)[C@H](CCCNC(=N)N)NC(=O)[C@@H](NC(=O)[C@@H]2CCCN2)CSSC[C@@H](C(=O)N[C@@H](CCCNC(=N)N)C(=O)O)NC(=O)CNC(=O)CNC1=O (H-PCRARIGGCR-OH; disulfide 2-9)
- pKi [4]: 4.53

Compound: CC[C@H](C)[C@@H]1NC(=O)[C@H](CCCNC(=N)N)NC(=O)[C@H](C)NC(=O)[C@H](CCCNC(=N)N)NC(=O)[C@@H](NC(=O)[C@@H]2CCCN2)CSSC[C@@H](C(=O)N[C@@H](C)C(=O)O)NC(=O)CNC(=O)[C@H](Cc2ccc(O)cc2)NC1=O (H-PCRARIYGCA-OH; disulfide 2-9)
- pKi [4]: 3.33

Compound: CC[C@H](C)[C@@H]1NC(=O)[C@H](CCCNC(=N)N)NC(=O)[C@H](C)NC(=O)[C@H](CCCNC(=N)N)NC(=O)[C@@H](NC(=O)[C@@H]2CCCN2)CSSC[C@@H](C(=O)N[C@@H](C)C(=O)O)NC(=O)CNC(=O)CNC(=O)[C@H](Cc2ccc(O)cc2)NC1=O (H-PCRARIYGGCA-OH; disulfide 2-10)
- pKi [4]: 3.01

Compound: C[C@H](NCc1ccccc1)C(=O)N[C@@H](CCCCN)C(=O)N[C@@H](CCCNC(=N)N)C(=O)N[C@@H](CCCNC(=N)N)C(=O)O (H-[NBnAla]KRR-OH)
- pKi [2]: 5.28
- pKi [1]: 5.28

Compound: CCCCC(CC)CN=C(N)N=C(N)NCCCCCCNC(N)=NC(N)=NCC(CC)CCCC (stereo not drawn) [ALEXIDINE HYDROCHLORIDE]
- pKi [1]: 4.39

Compound: CO[C@H]1C[C@H](O[C@@H]2/C(C)=C/C[C@@H]3C[C@@H](C[C@]4(CC[C@H](C)[C@@H](C5CCCCC5)O4)O3)OC(=O)[C@@H]3C=C(C)/C(=N/O)[C@H]4OC/C(=C\C=C\[C@@H]2C)[C@]43O)O[C@@H](C)[C@@H]1O [SELAMECTIN]
- pKi [2]: 4.20

Compound: IVERMECTIN
- pKi [2]: 4.10
- pKi [1]: 4.10
